Structures are written as SMILES.

Data on 8 molecules can be found in US20110281951A1, “Compositions and methods for treating amyloidosis” (priority 1999, published 2011).

Holding throughout (format): biochemical
Test [1] has as its target T1, IAPP (Homo sapiens, UniProt P10997).
T1 sequence (P10997 34-70 limits assumed): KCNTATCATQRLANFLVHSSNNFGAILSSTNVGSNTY
The test is described as follows: Circular dichroism analysis of IAPP-associated fibril formation (Example 7). Details: add 10 μL of 10 mg/mL IAPP stock solution (final 100 ng peptide). As to conditions: for Conformation at 24 h / CD at 24 h / Conformation at 48 h / CD at 48 h / Conformation at T0: molar ratio 1:5 peptide:compound; for CD at 24 h / CD at 48 h: more positive = less β-sheet; for Activity (change in ellipticity at 218 nm): molar ratio 1:10 peptide:compound. As to the method:
Circular dichroism analysis was conducted to confirm the activity of certain therapeutic compounds in preventing or inhibiting IAPP-associated fibril formation in accordance with the present disclosure by determining the presence or absence of […] conformation.
Instrument: JASCO J-715 Spectropolarimeter
Cell cuvette: Hellma quartz (QS) with 1.0 mm pathlength
Wavelength interval: 250 nm-190 nm
Scanning speed: 20 nm/min
The assay, a co-incubation procedure, examines the ability of a compound or substance to inhibit the assembly of amyloid fibrils, e.g., to test for the presence of the amyloidotic β-sheet conformation in the presence of soluble IAPP. Samples are run in the presence and absence (i.e., water alone) of buffering agent, which is done to determine if competitive effects are seen with the ionic buffer (usually phosphate).
Add components used at a molar ratio of 1:10 [ peptide:compound]; add 10 μL of 10 mg/mL IAPP stock solution (final […] peptide) to the aqueous solution containing compound to a final volume of 400 μL. The pH of the final assay solution is measured to ensure there is no fluctuation and the spectrum is accumulated using the parameters as shown above.
Add desired amount of compound to achieve a 1:10 molar ratio in 10 mM phosphate buffer, pH 7. Add 10 μL of 10 mg/mL IAPP stock solution (final peptide 100 μg) to the phosphate buffered solution containing the compound and bring to a final volume of 400 μL. The pH of the final assay solution is measured to ensure there is no fluctuation and the spectrum is accumulated using the parameters as shown above.
In both assays, a control sample is run with each test group. This control contains peptide only in water or buffer at a similar final volume of 400 μl. Spectra for the control are collected initially (first run) and at the end of the test (final run) to ensure that the peptide has not undergone extensive aggregation during the course of the assay. Spectra for the controls are used to compare with the measurements obtained with the treated samples.
Make fresh 1 mg/mL stock solution of IAPP in 10 mM phosphate buffer, pH 7. Add desired amount of compound to achieve a 1:10 molar ratio in 10 mM phosphate buffer, pH 7. Incubate for 3 days at room temperature. Make up to final volume of 400 μL with 10 mM phosphate buffer, pH 7. The pH of the final assay solution is measured to ensure there is no fluctuation and the spectrum is accumulated using the parameters as shown above.
A similar control is run for comparative purposes.
Plots of the spectra (control and treated) are individually assembled and the changes in ellipticity at 218 nm are examined. This minimum is directly correlated with the amount of β-sheet present in the sample. Changes in either a positive or negative direction are noted and a relative value (“active” or “not active”) assigned to the compound as a measure of activity. In a subsequent experiment with the compounds at a molar ratio of 1:5 [ peptide:compound], the degree of randomness was noted, an indication of the ability of the compounds to prevent amyloid aggregation. A more positive number indicates less β-sheet formation. The ability of a compound to prevent β-sheet formation for at least 24 h is important, as the non-aggregated amyloid fibrils will be excreted in the soluble form. In the control noted below, the decrease in CD (mdegs) may indicate that some of the peptide is aggregating under these conditions.

For test [2], the target named is T1, IAPP. The test is described as follows: Thioflavine T spectroscopy, rate of amyloid fibril formation. As to conditions: ThT 62.5 μM; excitation 440 nm, emission 482 nm. As to the method: Detection of ThT fluorescence can be used as a sensitive assay for amyloid fibril formation under different conditions. This assay has been used in experiments to determine the effects of compounds of the invention on amyloid fibril formation.
Human IAPP was dissolved in 40% trifluoroethanol and freeze-dried into conveniently-sized aliquots. IAPP was prepared immediately before the measurements by dissolving in 40% 1,1,1,3,3,3-hexafluoro-2-propanol (HFIP) in water to maintain the peptide in alpha helical conformation and soluble. A stock solution of ThT (2.5 mM) was prepared, 7.9 mg in 10 mL Tris-HCl pH 7.0 and filtered (0.22 μm). Solutions were kept in the dark until use. Fluorescence was examined at 440 nm excitation (slit 5 nm), and emission at 482 nm (slit 10 nm) with stirring. […] of ThT stock (final concentration 62.5 μM) was added to peptide sample and made up to 1 mL in the cuvette. The sample was stirred for 5 min. before taking a reading. Measurements were made at an initial time point (5 min. from sample preparation), at intervals over the next 4-6 h and after overnight incubation at room temperature.

For a further test, the target named is T2, Aβ(1-40) (Homo sapiens, UniProt P05067).
T2 construct: Prepare a fresh 40 μm solution of Aβ(1-40) in 0.02M Tris, pH 7.4; made in house; host or cells: chemical synthesis (FMOC), HPLC purified
In words: Circular dichroism analysis, pre-incubation assay, β-sheet at 218 nm. As to conditions: CD 218 nm, 0.02M Tris pH 7.4. As to the method:
The assay is conducted as follows:
Instrument: JASCO J-715 Spectropolarimeter.
Cell/cuvette: Hellma quartz (QS) with 1.0 mm pathlength Room temperature. Wavelength interval: 250 nm-190 nm.
Band width: 1.0 nm Response time: 1 sec Scanning speed: 20 nm/min Number of accumulations/spectrum: 5
1. Prepare a fresh 40 μm solution of Aβ(1-40) in 0.02M Tris, pH 7.4.
2. Prepare a 1 mM solution of test compounds in 0.02M Tris, pH 7.4.
3. Combine equal volumes of the Aβ(1-40) and test compound solutions.
4. Incubate the mixtures for 19 h.
5. Take the CD spectrum using the parameters above.
6. Return the mixtures to the incubator and incubate to 43 h.
7. Take the CD spectrum using the parameters above. • Inhibition of Aβ40 assembly/aggregation is determined by comparing the amount of b-sheet structure) appearing at lambda=218 nm) obtained in control and in treated sample at each timepoint.

T2 sequence (P05067 672-711 limits assumed): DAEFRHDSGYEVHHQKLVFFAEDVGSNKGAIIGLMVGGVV

`Cl.c1ccc2c(c1)CCNC2` [LVIX, 1,2,3,4-tetrahydroisoquinoline, hydrochloride]: on IAPP [1], the “Conformation at 24 h” value is “β”, the “CD at 24 h” value is recorded as “(−1.5) mdegs”, the “Conformation at 48 h” value is “β” and the “CD at 48 h” value was −1.3 mdegs. On IAPP [1], the “Conformation at T0” value was “Random” and the “Activity (change in ellipticity at 218 nm)” value was “Active”. Moreover, the “IAPP-associated fibril assembly (ThT fluorescence)” value (“IAPP-associated fibril assembly” for short) at IAPP [2] is listed as “inhibit or prevent IAPP-associated fibril assembly”.
Take `O=S(=O)(O)CCCNCCCO` [LVX, 3-(3-hydroxy-1-propyl)amino-1-propanesulfonic acid]: on IAPP [1], the “Conformation at 24 h” value is “Random”, the “Conformation at 48 h” value was “β”, the “CD at 48 h” value is given as −1.7 mdegs and the “Conformation at T0” value is recorded as “Random”. The “IAPP-associated fibril assembly” value on IAPP [2] was “inhibit or prevent IAPP-associated fibril assembly”.
Turning to `O=S(=O)(O)NC1CCCCC1` [LVXI, cyclohexylsulfamic acid], at IAPP [1], the “Conformation at 24 h” value was “β”, the “CD at 24 h” value was “(−1.1) mdegs”, the “Conformation at 48 h” value was “β” and the “CD at 48 h” value was −0.8 mdegs. Besides, on IAPP [1], the “Conformation at T0” value was “Random” and the “Activity (change in ellipticity at 218 nm)” value is listed as “Active”. Also, the “IAPP-associated fibril assembly” value at IAPP [2] was “inhibit or prevent IAPP-associated fibril assembly”.
In the case of `N[C@@H](COP(=O)(O)O)C(=O)O` [LVXII, O-phospho-L-serine], at IAPP [1], the “Conformation at 24 h” value is “Random”, the “Conformation at 48 h” value was “β”, the “CD at 48 h” value was −2.0 mdegs and the “Conformation at T0” value is given as “Random”. At IAPP [2], the “IAPP-associated fibril assembly” value is “inhibit or prevent IAPP-associated fibril assembly”.
Take `COc1ccc(S(=O)(=O)O)c2cccnc12` [LVXIV, 8-methoxyquinoline-5-sulfonic acid]: on IAPP [1], the “Conformation at 24 h” value is given as “β”, the “CD at 24 h” value is “(−1.3) mdegs”, the “Conformation at 48 h” value is given as “β” and the “CD at 48 h” value is recorded as −0.8 mdegs. The “Conformation at T0” value at IAPP [1] was “Random”. Also, the “IAPP-associated fibril assembly” value at IAPP [2] was “inhibit or prevent IAPP-associated fibril assembly”.
`O=S(=O)(O)CCCN1CC=C(c2ccccc2)CC1` [LVXV, 4-Phenyl-1-(3′-sulfopropyl)-1,2,3,6-tetrahydropyridine]: on Aβ(1-40), the “relative inhibition compared to Aβ alone, incubation time 0 h” value is “+ (+: 0-25%)”; the “relative inhibition compared to Aβ alone, incubation time 19 h” value is “++++ (++++: 75-100%)”; the “relative inhibition compared to Aβ alone, incubation time 43 h” value is on record as “++ (++: 25-50%)”. In addition, at IAPP [1], the “Conformation at 24 h” value is listed as “Random”, the “Conformation at 48 h” value is on record as “β”, the “CD at 48 h” value is reported as −1.8 mdegs and the “Conformation at T0” value is given as “Random”. For the same molecule, the “IAPP-associated fibril assembly” value at IAPP [2] was “inhibit or prevent IAPP-associated fibril assembly”.
Regarding `NCC(O)CS(=O)(=O)O` (stereo not drawn) [LVXVI, 3-amino-2-hydroxy-1-propanesulfonic acid], on Aβ(1-40), the “relative inhibition compared to Aβ alone, incubation time 0 h” value is listed as “+ (+: 0-25%)”; the “relative inhibition compared to Aβ alone, incubation time 19 h” value is “+++ (+++: 50-75%)”; the “relative inhibition compared to Aβ alone, incubation time 43 h” value is reported as “++ (++: 25-50%)”. For the same molecule, at IAPP [2], the “IAPP-associated fibril assembly” value is “inhibit or prevent IAPP-associated fibril assembly”.
`CN(C)CCCS(=O)(=O)O` [LVXVII, 3-dimethylamino-1-propanesulfonic acid]: at IAPP [1], the “Conformation at 24 h” value is listed as “β”, the “CD at 24 h” value was “(−1.7) mdegs”, the “Conformation at 48 h” value was “β” and the “CD at 48 h” value is given as −1.5 mdegs. Also, the “Conformation at T0” value at IAPP [1] is listed as “Random”. Also, the “IAPP-associated fibril assembly” value at IAPP [2] is “inhibit or prevent IAPP-associated fibril assembly”.
